The test system of data set [1] is Sars-CoV-2. Put plainly: Test of inhibition of Sars-CoV-2 viral infection of Vero E6 cells. Format: cell-based. The note with it: Severe acute respiratory syndrome coronavirus 2, Vero C1008, read-out: viable cells. Here is the method:
The substances were evaluated in the concentration ranges from […]. With the same concentration (0.015 mg/mL) maximum efficacy was obtained with Curcumin (94% viable cells), followed by Emodin (89% viable cells), α-Hederine (71% viable cells) and Thymoquinone (73% viable cells).

For data set [2], the system named is Vero E6 cells. The note with it: substances solubilized in DMSO, luminescence kit for quantification of viable cells.
From the text: The substances were solubilized in dimethyl sulfoxide (DMSO) and renal epithelial cells (Vero E6 ATCC® CRL-1586™) were used for the test. The experimental procedure used was divided into 3 steps: • 1) Evaluation of cytotoxicity (amount of dead cells) of DMSO on Vero E6 cells compared to the negative control, i.e., compared to Vero E6 cells not treated with DMSO; • 2) Evaluation of cytotoxicity of the single substances dissolved in DMSO on Vero E6 cells compared to the negative control, i.e., compared to Vero E6 cells not treated with DMSO; • 3) Evaluation of inhibition of the infection of Vero E6 cells by Sars-Cov-2 (around 10^5 viral particles/mL) compared to the positive control, i.e., Vero E6 cells infected but not treated with any phytotherapeutic substance.
The substances were administered to Vero E6 cells at different concentrations gradually decreasing towards lower concentrations. Cytotoxicity was evaluated using a luminescence kit for the quantification of viable cells.

Turning to `COc1cc(/C=C/C(=O)/C=C(O)/C=C/c2ccc(O)c(OC)c2)ccc1O` [curcumin], the viability at 15 µg/mL in data set [1] is 94%. The “concentrations tolerated by the cells” value in data set [2] was 15000 ng/mL.
`Cc1cc(O)c2c(c1)C(=O)c1cc(O)cc(O)c1C2=O` [emodin]: in data set [1], the viability at 15 µg/mL came out at 89%. In data set [2], the “concentrations tolerated by the cells” value amounted to 60000 ng/mL.
As to `CC1=CC(=O)C(C(C)C)=CC1=O` [thymoquinone], the viability at 15 µg/mL in data set [1] was determined as 73%. The “concentrations tolerated by the cells” value in data set [2] is 7500 ng/mL.
For `C[C@@H]1O[C@@H](O[C@H]2[C@H](O[C@H]3CC[C@@]4(C)[C@@H](CC[C@]5(C)[C@@H]4CC=C4[C@@H]6CC(C)(C)CC[C@]6(C(=O)O)CC[C@]45C)[C@]3(C)CO)OC[C@@H](O)[C@@H]2O)[C@H](O)[C@H](O)[C@H]1O` [α-hederine] the same measures were 71% and 7500 ng/mL.

The values above are taken from patent US20240237641A1, “COMPOSITION COMPRISING GRAPHENE FOR THE TREATMENT OF TEXTILE ARTICLES AND TEXTILE ARTICLES TREATED” (DIRECTA PLUS S.P.A., priority 2021, published 2024).
